Target: T1, Xanthine oxidase (XOD) (Bos taurus, UniProt P80457)
T1 construct: gene XDH
Assay: spectrophotometric XOD inhibition assay at […] nm with xanthine substrate, cow milk enzyme
Type: biochemical

T1 sequence (P80457 2-1332): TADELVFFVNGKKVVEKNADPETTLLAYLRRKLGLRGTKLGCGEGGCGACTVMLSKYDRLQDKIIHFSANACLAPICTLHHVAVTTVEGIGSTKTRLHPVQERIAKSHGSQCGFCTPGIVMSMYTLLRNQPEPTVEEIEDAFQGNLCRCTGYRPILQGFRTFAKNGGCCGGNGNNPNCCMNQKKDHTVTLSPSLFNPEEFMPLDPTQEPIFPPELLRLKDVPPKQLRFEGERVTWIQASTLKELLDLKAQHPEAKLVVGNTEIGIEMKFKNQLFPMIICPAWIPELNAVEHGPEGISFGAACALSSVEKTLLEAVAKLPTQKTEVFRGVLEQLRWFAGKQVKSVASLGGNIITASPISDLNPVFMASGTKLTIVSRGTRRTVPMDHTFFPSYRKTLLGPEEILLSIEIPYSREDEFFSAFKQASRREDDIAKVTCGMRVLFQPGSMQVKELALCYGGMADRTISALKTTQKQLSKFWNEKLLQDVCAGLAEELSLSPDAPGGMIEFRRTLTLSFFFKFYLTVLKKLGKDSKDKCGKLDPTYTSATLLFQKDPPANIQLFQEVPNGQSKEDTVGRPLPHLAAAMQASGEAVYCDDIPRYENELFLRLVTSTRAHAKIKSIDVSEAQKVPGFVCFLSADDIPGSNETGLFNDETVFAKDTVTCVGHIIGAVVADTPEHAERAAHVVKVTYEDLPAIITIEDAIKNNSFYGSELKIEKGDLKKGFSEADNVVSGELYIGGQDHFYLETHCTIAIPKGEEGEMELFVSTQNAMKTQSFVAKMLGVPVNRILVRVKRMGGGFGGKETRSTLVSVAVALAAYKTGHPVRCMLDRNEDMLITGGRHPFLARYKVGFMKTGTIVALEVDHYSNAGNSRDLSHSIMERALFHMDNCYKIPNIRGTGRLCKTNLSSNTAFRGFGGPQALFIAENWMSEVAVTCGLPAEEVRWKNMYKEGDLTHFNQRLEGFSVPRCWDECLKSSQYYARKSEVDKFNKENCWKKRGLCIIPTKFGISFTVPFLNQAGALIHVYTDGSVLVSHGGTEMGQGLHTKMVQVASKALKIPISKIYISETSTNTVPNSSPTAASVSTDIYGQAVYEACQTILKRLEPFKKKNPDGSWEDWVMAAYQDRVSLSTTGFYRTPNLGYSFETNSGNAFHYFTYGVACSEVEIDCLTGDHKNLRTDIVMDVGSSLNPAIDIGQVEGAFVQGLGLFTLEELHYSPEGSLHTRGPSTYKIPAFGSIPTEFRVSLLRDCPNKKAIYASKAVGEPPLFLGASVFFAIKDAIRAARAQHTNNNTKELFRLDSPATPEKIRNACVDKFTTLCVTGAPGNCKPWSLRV

**Q.** Which IC50 does the source give for `COc1ccc2c(c1OC)CN1CCc3cc4c(cc3C1=C2)OCO4` [DHB, Dihydroberberine] here?
**A.** 34.4 ± 2.84 µM
